Assay results published in patent US8178506B2, “Oligomeric compounds and compositions for use in modulation of small non-coding RNAs” (Regulus Therapeutics Inc., priority 2003, dated 2012).
In the oligonucleotide strings, read from the 5' end, every base follows the letter of its sugar. An asterisk marks phosphorothioate; unmarked linkages are phosphodiester. Other units and linkages are bracketed, terminal groups are in braces. A string of capitals states the bases alone. e = 2'-O-(2-methoxyethyl) (MOE); [5mC] = 5-methylcytosine

Key:
IL-12 mRNA = IL-12 mRNA in LPS-activated primary murine macrophages; assay type: cell-based, mouse; details: for IL-12 mRNA expression, −IFN % UTC: 300 nM oligomeric compound and LPS, no IFN-gamma pretreatment, single experiment; for IL-12 mRNA expression, −IFN % UTC / IL-12 mRNA expression, +IFN % UTC: normalized to LPS-treated cells without oligomeric compound; for IL-12 mRNA expression, +IFN % UTC: 300 nM oligomeric compound, stimulation with IFN-gamma and LPS, average of 2 experiments; for IL-12 mRNA expression, % UTC: LPS, average of 3 treatments
PEPCK-c = PEPCK-c mRNA expression in HepG2 cells; assay type: cell-based, human; details: for PEPCK-c (% UTC): HepG2, 100 nM oligomeric compound; for PEPCKc mRNA: HepG2 cells, four hours, UTC = 100
follistatin = experiment: Follistatin mRNA expression in HepG2 cells; assay type: cell-based, human; details: for Follistatin (% UTC): HepG2, 100 nM oligomeric compound; for Follistatin mRNA: HepG2 cells, four hours, UTC = 100
[1] = Experiment 1, basal (no insulin)
[2] = Experiment 2, 1 nM insulin treated
[3] = Experiment 2, insulin treated: HepG2 cells transfected with oligomeric compound, 1 nM insulin for four hours, UTC + 1 nM insulin = 100

Substance | IL-12 mRNA expression, −IFN % UTC (IL-12 mRNA) [% UTC] | IL-12 mRNA expression, +IFN % UTC (IL-12 mRNA) [% UTC] | PEPCK-c (% UTC) (PEPCK-c; [1]) | PEPCK-c (% UTC) (PEPCK-c; [2]) | Follistatin (% UTC) (follistatin; [1]) | Follistatin (% UTC) (follistatin; [2]) | PEPCKc mRNA (PEPCK-c; [1]) | Follistatin mRNA (follistatin; [1]) | also measured
327919 (antisense eG*eA*eA*eA*e[5mC]*e[5mC]*e[5mC]*eA*eG*e[5mC]*eA*eG*eA*e[5mC]*eA*eA*eT*eG*eT*eA*eG*e[5mC]*eT) [compound 327919] | 179 | 37 | 71 | 105 | 74 | 178 | – | – | –
327899 (antisense e[5mC]*eA*eG*eT*eG*eA*eA*eT*eT*e[5mC]*eT*eA*e[5mC]*e[5mC]*eA*eG*eT*eG*e[5mC]*e[5mC]*eA*eT*eA) [compound 327899] | 164 | 7 | – | – | – | – | 42 | 66 | –
327923 (antisense eG*eA*eA*eA*eG*eA*eG*eA*e[5mC]*e[5mC]*eG*eG*eT*eT*e[5mC]*eA*e[5mC]*eT*eG*eT*eG*eA) [compound 327923] | 269 | 134 | – | – | – | – | 83 | 86 | PEPCKc mRNA expression (PEPCK-c; [3]): 125; Follistatin mRNA expression (follistatin; [3]): 106
327889 (antisense eG*eT*eG*eG*eT*eA*eA*eT*e[5mC]*e[5mC]*e[5mC]*eT*eG*eG*e[5mC]*eA*eA*eT*eG*eT*eG*eA*eT) [compound 327889] | 153 | 10 | 137 | 202 | 56 | 72 | – | – | –
327925 (antisense eT*eA*eG*e[5mC]*eT*eG*eG*eT*eT*eG*eA*eA*eG*eG*eG*eG*eA*e[5mC]*e[5mC]*eA*eA) [compound 327925] | 302 | 60 | 145 | 182 | 110 | 148 | – | – | –
327913 (antisense eA*eA*e[5mC]*e[5mC]*eG*eA*eT*eT*eT*e[5mC]*eA*eA*eA*eT*eG*eG*eT*eG*e[5mC]*eT*eA*eG) [compound 327913] | 276 | 73 | 229 | 268 | 115 | 123 | – | – | –
327893 (antisense eA*eA*e[5mC]*e[5mC]*eA*e[5mC]*eA*e[5mC]*eA*eA*e[5mC]*e[5mC]*eT*eA*e[5mC]*eT*eA*e[5mC]*e[5mC]*eT*e[5mC]*eA) [compound 327893] | 117 | 52 | – | – | – | – | 81 | 93 | –
327901 (antisense eT*eG*eA*eG*e[5mC]*eT*eA*e[5mC]*eA*eG*eT*eG*e[5mC]*eT*eT*e[5mC]*eA*eT*e[5mC]*eT*e[5mC]*eA) [compound 327901] | 225 | 9 | 119 | 117 | 93 | 135 | – | – | –
327890 (antisense eA*eG*e[5mC]*eA*e[5mC]*eA*eA*eA*e[5mC]*eT*eA*e[5mC]*eT*eA*e[5mC]*e[5mC]*eT*e[5mC]*eA) [compound 327890] | 183 | 94 | 85 | 113 | 78 | 115 | – | – | –
327903 (antisense eA*eA*e[5mC]*eT*eA*eT*eA*e[5mC]*eA*eA*e[5mC]*e[5mC]*eT*eA*e[5mC]*eT*eA*e[5mC]*e[5mC]*eT*e[5mC]*eA) [compound 327903] | 200 | 23 | 71 | 87 | 60 | 89 | – | – | –
327876 (antisense eA*eA*e[5mC]*eA*e[5mC]*eT*eG*eA*eT*eT*eT*e[5mC]*eA*eA*eA*eT*eG*eG*eT*eG*e[5mC]*eT*eA) [compound 327876] | 194 | 9 | 119 | 176 | 104 | 138 | – | – | –
327941 (antisense eA*eA*e[5mC]*e[5mC]*e[5mC]*eA*e[5mC]*e[5mC]*eG*eA*e[5mC]*eA*eG*e[5mC]*eA*eA*eT*eG*eA*eA*eT*eG*eT*eT) [compound 327941] | 89 | 34 | 101 | 98 | 80 | 68 | – | – | IL-12 mRNA expression, % UTC (IL-12 mRNA; 75 nM, +IFN): 4 % UTC; IL-12 mRNA expression, % UTC (IL-12 mRNA; 75 nM, −IFN): 49 % UTC; IL-12 mRNA expression, % UTC (IL-12 mRNA; 150 nM, +IFN): 2 % UTC; IL-12 mRNA expression, % UTC (IL-12 mRNA; 150 nM, −IFN): 45 % UTC; IL-12 mRNA expression, % UTC (IL-12 mRNA; 300 nM, +IFN): 3 % UTC; IL-12 mRNA expression, % UTC (IL-12 mRNA; 300 nM, −IFN): 34 % UTC; IL-12 mRNA expression, % UTC (IL-12 mRNA; 600 nM, +IFN): 3 % UTC; IL-12 mRNA expression, % UTC (IL-12 mRNA; 600 nM, −IFN): 41 % UTC
341800 (antisense AAGCCCAAAAGGAGAAUUCUUUG; all 2'-MOE, all phosphorothioate, methylation of C and T or U not given here) [compound 341800] | 180 | 100 | – | – | – | – | 71 | 105 | –
